Laboratory results: patent US7060451B2, “Methods for screening GABA-modulatory compounds for specified pharmacological activities” (Neurogen Corporation, priority 1999, dated 2006)

Experiments:
[1] = molecular target: GABAA receptors (benzodiazepine site, Ro15-1788 binding sites), rat cortex; assay: Ro15-1788 competition binding assay, rat cortex membranes; settings: displacement of 3H Ro15-1788, read-out: Ro15-1788 binding, K1
Procedure: Rat cortex membranes are prepared by homogenizing one or two previously frozen rat cortexes in 30 ml of 25 mM Tris Buffer, pH 7.4. The homogenate is centrifuged for 10 minutes at 500× g. The supernatant is then transferred to a clean centrifuge tube and the pellet discarded. The supernatant is spun for 20 minutes at 48,000× g. The supernatant from this spin is discarded and the pellet is resuspended in 30 ml of 25 mM Tris Buffer, pH 7.4 and centrifuged for an additional 10 minutes at 48,000× g. The supernatant from the final spin is discarded and the membrane pellet is resuspended in 100 mL Tris buffer per gram of cortex used.
The cortex membrane preparation is used to perform either percent inhibition or competition binding assays. In order to determine percent inhibition 300 μl of resuspended membranes are mixed with 200 μl ^3H labeled Ro15-1788 (final concentration 2.5 nM) and incubated for 1 hour on ice in the presence of 2 μl test compound in DMSO (final concentration 4 μM). Membranes are harvested onto untreated filtermats. The filtermats are dried and the ^3H Ro15-1788 signal is counted in a scintillation counter. Nonspecific binding is determined by displacement of ^3H Ro15-1788 with 10 μM Diazepam (RBI) or any other compound known to bind tightly at the benzodiazepine site.
K1 values are calculated according to the Cheng-Prussof equation.

[2] = molecular target: α1β2γ2 GABAA subtype receptor (Homo sapiens, UniProt P14867+P18507); assay: oocyte electrophysiology, two electrode voltage-clamp, potentiation of GABA current; format: cell-based; settings: Xenopus oocytes, human subunits, GABA EC10; for Emax: read-out: oocyte electrophysiology maximum potentiation (%) α1β2γ2
Chain of α1β2γ2 GABAA subtype receptor (P14867 28-456): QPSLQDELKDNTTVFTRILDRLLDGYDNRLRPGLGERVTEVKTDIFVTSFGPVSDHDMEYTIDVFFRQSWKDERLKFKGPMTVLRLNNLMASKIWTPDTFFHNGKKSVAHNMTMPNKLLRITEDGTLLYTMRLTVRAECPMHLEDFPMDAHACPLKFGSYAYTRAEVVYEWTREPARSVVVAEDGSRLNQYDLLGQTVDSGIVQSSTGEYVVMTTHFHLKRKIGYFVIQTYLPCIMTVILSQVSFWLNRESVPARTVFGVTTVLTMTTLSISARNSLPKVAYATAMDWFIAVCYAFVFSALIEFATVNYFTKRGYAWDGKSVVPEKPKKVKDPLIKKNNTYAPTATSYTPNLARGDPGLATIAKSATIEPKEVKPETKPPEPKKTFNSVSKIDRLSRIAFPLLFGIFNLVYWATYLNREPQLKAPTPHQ
Chain of α1β2γ2 GABAA subtype receptor (P47870 25-512 partner limits assumed): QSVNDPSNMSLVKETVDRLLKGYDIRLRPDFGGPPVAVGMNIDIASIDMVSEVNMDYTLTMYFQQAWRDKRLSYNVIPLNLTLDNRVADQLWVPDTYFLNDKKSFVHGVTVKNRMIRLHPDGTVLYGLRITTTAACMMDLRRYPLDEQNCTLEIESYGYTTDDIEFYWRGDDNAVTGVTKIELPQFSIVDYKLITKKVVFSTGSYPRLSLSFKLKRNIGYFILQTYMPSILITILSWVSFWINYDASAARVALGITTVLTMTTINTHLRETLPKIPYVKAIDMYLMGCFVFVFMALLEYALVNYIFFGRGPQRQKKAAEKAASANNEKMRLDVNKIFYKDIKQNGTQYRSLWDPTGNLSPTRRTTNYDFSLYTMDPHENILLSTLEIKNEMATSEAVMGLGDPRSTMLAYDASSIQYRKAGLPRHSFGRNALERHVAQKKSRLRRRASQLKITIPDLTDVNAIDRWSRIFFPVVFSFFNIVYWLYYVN
Chain of α1β2γ2 GABAA subtype receptor (P18507 40-475): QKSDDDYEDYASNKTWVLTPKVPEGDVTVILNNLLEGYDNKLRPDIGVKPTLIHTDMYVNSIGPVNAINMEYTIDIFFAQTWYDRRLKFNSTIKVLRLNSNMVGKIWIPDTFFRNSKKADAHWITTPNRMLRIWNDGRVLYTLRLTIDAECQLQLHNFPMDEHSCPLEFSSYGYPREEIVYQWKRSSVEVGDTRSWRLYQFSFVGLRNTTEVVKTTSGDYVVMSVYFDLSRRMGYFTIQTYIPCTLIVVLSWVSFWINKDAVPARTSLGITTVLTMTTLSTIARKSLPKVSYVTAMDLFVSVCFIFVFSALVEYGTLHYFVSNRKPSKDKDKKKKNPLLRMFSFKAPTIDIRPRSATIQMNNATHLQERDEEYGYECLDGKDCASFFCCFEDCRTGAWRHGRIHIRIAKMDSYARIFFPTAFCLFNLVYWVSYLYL
Procedure: (§1) Assays are carried out as described previously in White and Gurley, 1995 and White, et al., 1995. Xenopus laevis oocytes are enzymatically isolated and injected with non-polyadenylated cRNA for human derived α, β and γ GABAA subunits, respectively. In more preferred embodiments cRNA for the α1β2γ2, α2β3γ2, α3β3γ2, and α5β3γ2 subunit combinations are injected. Only one of these subunit combinations is injected per cell. For each subunit combination, sufficient message is injected to result in current amplitudes of >10 nA when 1 μM GABA is applied. Electrophysiological recordings are carried out using the two electrode voltage-clamp technique at a membrane holding potential of −70 mV.
(§2) Compounds are evaluated against a GABA concentration that evokes <10% (EC10) of the maximal evocable GABA current. Each oocyte is exposed to increasing concentrations of compound in order to evaluate a concentration/effect relationship.
(§3) Specificity of a compound for the Ro15-1788 site is determined following completion of the concentration/effect curve. After washing the oocyte sufficiently to remove previously applied compound, the oocyte is exposed to GABA and 1 μM Ro15-1788, followed by exposure to GABA, 1 μM Ro15-1788, and compound. Percent change due to addition of compound is calculated as described above. Any percent change observed in the presence of Ro15-1788 is subtracted from the percent changes in current amplitude observed in the absence of 1 μM Ro15-1788. These net values are used for the calculation of average activity and EC50 values.
(§4) To evaluate average activity and EC50 values, the concentration/effect data are averaged across cells and fit to the logistic equation. Average values are reported as mean ±standard error.

[3] = molecular target: α2β3γ2 GABAA subtype receptor (Homo sapiens, UniProt P18507+P47869); assay: as above; format: cell-based; settings: Xenopus oocytes, human subunits, GABA EC10
Chain of α2β3γ2 GABAA subtype receptor (P47869 29-451): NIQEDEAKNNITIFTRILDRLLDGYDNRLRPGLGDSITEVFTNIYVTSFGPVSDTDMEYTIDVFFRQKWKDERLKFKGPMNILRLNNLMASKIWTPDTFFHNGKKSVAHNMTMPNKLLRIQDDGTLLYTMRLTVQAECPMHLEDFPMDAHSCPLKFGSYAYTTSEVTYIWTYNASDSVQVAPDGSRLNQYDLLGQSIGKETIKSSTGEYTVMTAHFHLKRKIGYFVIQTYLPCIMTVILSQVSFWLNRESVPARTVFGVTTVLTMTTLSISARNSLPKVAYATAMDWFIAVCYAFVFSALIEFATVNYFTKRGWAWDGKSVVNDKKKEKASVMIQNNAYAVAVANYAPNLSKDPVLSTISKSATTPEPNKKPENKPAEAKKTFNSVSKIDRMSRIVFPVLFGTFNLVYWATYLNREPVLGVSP
Chain of α2β3γ2 GABAA subtype receptor (P28472 26-473 partner): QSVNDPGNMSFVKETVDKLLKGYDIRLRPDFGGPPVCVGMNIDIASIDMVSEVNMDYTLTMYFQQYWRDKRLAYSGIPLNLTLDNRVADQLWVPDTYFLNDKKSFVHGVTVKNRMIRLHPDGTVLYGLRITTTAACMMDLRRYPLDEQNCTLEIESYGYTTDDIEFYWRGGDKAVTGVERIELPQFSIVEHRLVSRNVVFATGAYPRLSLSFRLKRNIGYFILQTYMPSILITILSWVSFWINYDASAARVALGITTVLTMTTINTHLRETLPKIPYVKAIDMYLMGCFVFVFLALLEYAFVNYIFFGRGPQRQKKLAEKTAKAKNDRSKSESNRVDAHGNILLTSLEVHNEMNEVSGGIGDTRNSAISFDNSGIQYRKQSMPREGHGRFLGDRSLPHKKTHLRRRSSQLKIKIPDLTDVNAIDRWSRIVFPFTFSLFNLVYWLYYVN
Chain of α2β3γ2 GABAA subtype receptor (P18507 40-475): as the sequence (P18507 40-475) above
Procedure: as §1, §2, §3, §4

[4] = molecular target: α3β3γ2 GABAA subtype receptor (Homo sapiens, UniProt P18507+P34903); assay: as above; format: cell-based; settings: Xenopus oocytes, human subunits, GABA EC10
Chain of α3β3γ2 GABAA subtype receptor (P34903 29-492): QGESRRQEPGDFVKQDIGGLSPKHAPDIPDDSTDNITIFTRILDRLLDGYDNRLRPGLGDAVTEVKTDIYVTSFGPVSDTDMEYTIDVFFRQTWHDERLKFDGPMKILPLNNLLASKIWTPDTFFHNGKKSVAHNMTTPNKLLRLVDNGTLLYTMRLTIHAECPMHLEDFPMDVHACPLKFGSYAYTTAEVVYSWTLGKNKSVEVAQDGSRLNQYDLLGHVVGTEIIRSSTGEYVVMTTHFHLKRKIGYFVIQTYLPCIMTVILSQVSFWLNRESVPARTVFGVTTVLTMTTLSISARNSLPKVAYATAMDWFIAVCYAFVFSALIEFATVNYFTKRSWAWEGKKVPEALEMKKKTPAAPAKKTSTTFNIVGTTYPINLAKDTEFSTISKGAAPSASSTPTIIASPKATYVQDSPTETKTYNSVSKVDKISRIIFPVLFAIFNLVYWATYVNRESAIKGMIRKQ
Chain of α3β3γ2 GABAA subtype receptor (P28472 26-473 partner): as the sequence (P28472 26-473 partner) above
Chain of α3β3γ2 GABAA subtype receptor (P18507 40-475): as the sequence (P18507 40-475) above
Procedure: as §1, §2, §3, §4

[5] = molecular target: α5β3γ2 GABAA subtype receptor (Homo sapiens, UniProt P18507+P31644); assay: as above; format: cell-based; settings: Xenopus oocytes, human subunits, GABA EC10; for Emax: read-out: oocyte electrophysiology maximum potentiation (%) α5β3γ2
Chain of α5β3γ2 GABAA subtype receptor (P31644 32-462): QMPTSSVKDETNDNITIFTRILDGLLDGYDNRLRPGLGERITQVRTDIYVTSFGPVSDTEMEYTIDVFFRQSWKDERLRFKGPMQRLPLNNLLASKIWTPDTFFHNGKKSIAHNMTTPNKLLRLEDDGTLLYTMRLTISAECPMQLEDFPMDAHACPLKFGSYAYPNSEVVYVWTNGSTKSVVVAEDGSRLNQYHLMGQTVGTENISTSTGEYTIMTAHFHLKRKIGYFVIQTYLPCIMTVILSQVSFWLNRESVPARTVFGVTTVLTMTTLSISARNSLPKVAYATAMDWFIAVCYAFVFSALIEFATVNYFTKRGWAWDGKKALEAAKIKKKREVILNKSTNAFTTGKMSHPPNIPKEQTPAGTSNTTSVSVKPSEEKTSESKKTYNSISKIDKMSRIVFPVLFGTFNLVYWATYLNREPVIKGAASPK
Chain of α5β3γ2 GABAA subtype receptor (P28472 26-473 partner): as the sequence (P28472 26-473 partner) above
Chain of α5β3γ2 GABAA subtype receptor (P18507 40-475): as the sequence (P18507 40-475) above
Procedure: as §1, §2, §3, §4

[6] = test system: rats; assay: spontaneous locomotor activity; format: in vivo; settings: rat
Procedure: Spontaneous locomotor activity can be measured to determine sedative effects of compounds. Locomotor activity is measured in eight computerized Digiscan-16 Animal Activity Monitors (Omnitech Electronics, Columbus, Ohio) equipped with 48 infrared photocell emitters and detectors. Each box is constructed of Plexiglas sides and floor. Horizontal activity is detected by a set of horizontal sensors on the front to back walls and a second group of sensors on the side to side walls located 5 cm above the cage floor. Vertical activity is detected by a third set of sensors on the side to side walls located 13.5 cm above the cage floor. The rats are tested in the presence of white noise (62 dB) and red St light (60 watt).
Test compound is administered IV in a 50% PEG vehicle 5 minutes prior to the test session. A range of compound doses is typically used and 6 to 8 rats are tested at each dose. The animal's movement time, vertical activity, and total distance traveled are tracked over a 15 minute test session. A sedative, or hypnotic, effect in the spontaneous locomotor activity model is defined by a decrease in any two of these three measures relative to animals given vehicle alone.

[7] = test system: rats; assay: elevated plus maze; format: in vivo; settings: rat, IV, statistically significant response (anxiolytic effect)
Procedure: The elevated plus maze model capitalizes on rats' innate fear of open, elevated places. The test apparatus is an elevated plus maze consisting of two open arms and two closed arms. A rat will naturally chose to spend more time on the closed arms of the maze than on the open arms but that if an efficacious anxiolytic compound is administered to the rat prior to the test the amount it of time the rat spends in the open arms is increased.
Test compound is administered IV in a 50% PEG (polyethylene glycol) vehicle 5 minutes prior to the test session. A range of compound doses is typically used and 8-10 rats are tested at each dose. The rat is placed in the center of the maze facing one of the open arms. The animal's locomotion is tracked over a five minute test session using photocells interfaced to a computer. The computer measures the number of entries into each arm and the time spent on each arm. An anxiolytic effect in the elevated plus maze model is defined by an increase in the percentage of time spent on the open arms in compound versus vehicle treated animals.

[8] = test system: rats; assay: Porsolt forced swim test; format: in vivo; settings: rat, administered IV, statistically significant response
From the text: The effects measured in this model have been correlated to antidepressant efficacy for drugs. The paradigm of this model is that an effective antidepressant compound will cause a rat to make greater attempts to escape a water-filled cylinder than a rat given vehicle only.
Animals used in this study were non-naive male Sprague Dawley Rats (SASCO, St. Louis) weighing between 280-350 grams. The test apparatus consists of 6 clear Plexiglas cylinders 40 cm high×19 cm wide. Cylinders are filled to 18 cm with 25° C. water. Each rat is placed in a cylinder for a 15 minute training session. Following either subchronic or acute dosing of either vehicle (0.5% methylcellulose) of compound, animals are brought back 24 hours later for a 5 minute test session. These test session is videotaped for later scoring.
Subchronic dosing consists of administering drug three times in the 24-hour period between training and testing. The drug is administered 24 hrs., 5 hrs., and 1 hr. prior to the test session. Acute dosing consists of administering the drug once, 1 hour prior to the test session. Scoring is done using a time-sampling computer program written in Visual Basic and run in DOS. […] These sampling score are then converted into percentages of the test session.

[9] = test system: rats; assay: step-down passive avoidance; format: in vivo; settings: rat; for cognitive model (step-down passive avoidance), minimal efficacious dose: cognitive enhancement
From the text: In step-down passive avoidance a rat is placed on a platform located in the center of an electrified grid floor that is contained within a large (45 cm×45 cm×50 cm) white translucent Plexiglas® enclosure. The natural inclination of the rat is to step off the platform and investigate its surroundings. […] Each time the animal steps off the platform it receives a mild foot shock of 2 mAmps×6 sec. Following each shock the animal is removed from the box, placed in its cage for a one minute inter-trial interval, and then returned to the platform. The latency to step down on each trial, the number of trials taken to reach criterion during training and the retention latency are collected.
Testing is conducted approximately 24 hrs. after training. Drug-free animals are placed on the platform in the box in which they will have been trained and the latency to step down onto the grid floor is recorded for one trial as a measure of memory retention.

[10] = IV, hypnotic effect (Table VII)
[11] = IV, sedation as side effect (Tables V and IX)

| Structure (SMILES) | Ki [1] [nM] | oocyte electrophysiology maximum potentiation (%) α1β2γ2 [2] [%] | oocyte electrophysiology maximum potentiation (%) α2β3γ2 [3] [%] | oocyte electrophysiology maximum potentiation (%) α3β3γ2 [4] [%] | oocyte electrophysiology maximum potentiation (%) α5β3γ2 [5] [%] | spontaneous locomotor activity, minimal efficacious dose [6, 10] [mg/kg] | Emax [5] [%] | elevated plus maze, minimal efficacious dose [7] [mg/kg] | further results |
| --- | --- | --- | --- | --- | --- | --- | --- | --- | --- |
| CC1CC(=O)c2c(C(=O)Nc3ccc(F)cc3)c[nH]c2C1 (stereo not shown) [compound 8] | 24 | 17 | 42 | 61 | 16 | 0.5 |  |  |  |
| O=c1c(-c2ccccc2F)nc2c[nH]c3ccccc3n1-2 [compound 2] | 10 | 18 | 40 | 39 |  |  | -11 | 0.5 | spontaneous locomotor activity, minimal efficacious dose ([6]; in vivo, iv, 15 min): 4 mg/kg |
| CNCc1ccc(NC(=O)c2c[nH]c3c2C(=O)CCCC3)cc1 [compound 4] |  |  |  |  | 38 |  | 0 | 0.5 | Porsolt swim test, minimal efficacious dose [8]: 20 mg/kg |
| c1cc2c(cc1-c1ncc3[nH]c4c(c3n1)CCCC4)OCO2 [compound 9] | 7.8 | 33 | 53 | 23 |  | 0.5 | < 10 |  | step-down passive avoidance, minimal efficacious dose ([9]; in vivo, iv, 24 h): 0.5 mg/kg |
| O=C(Nc1cccc(F)c1)c1c[nH]c2c(c1=O)CCC2 [compound 5] | 8.3 |  | 44 | 44 |  |  | 0 | 0.5 | Emax [2]: 0% |
| O=c1c2c[nH]c3ccccc3n-2c(=O)n1-c1ccc(F)cc1 [compound 10] | 10 |  | 22 | 23 |  |  | -27 |  | Emax [2]: 0%; cognitive model (step-down passive avoidance), minimal efficacious dose ([9]; IV): 0.25 mg/kg |
| O=c1[nH]c2c(n1-c1nc3ccc(F)c(F)c3o1)CCCCC2 [compound 7] | 3 | 18 | 51 | 83 |  | 0.125 | -23 |  |  |
| COc1ccc(NC(=O)c2c[nH]c3c2C(=O)CC(C)(C)C3)c(F)c1 [compound 6] | 11 | 25 | 72 | 95 | 42 | 0.25 |  |  | step-down passive avoidance, minimal efficacious dose ([9]; in vivo, iv, 24 h): 4 mg/kg |
| Cc1ccc(-c2nc3ccc(C)cn3c2CC(=O)N(C)C)cc1 [Zolpidem, reference compound] | 48 | 263 | 350 | 882 |  | 0.25 |  |  | step-down passive avoidance, minimal efficacious dose ([9]; IV, cognitive impairment side effect (Table VII)): 0.5 mg/kg |
| Cc1nnc2n1-c1ccc(Cl)cc1C(c1ccccc1)=NC2 [Alprazolam, reference compound] | 3.3 | 327 | 333 | 774 | 206 |  |  | 0.0625 | spontaneous locomotor activity, minimal efficacious dose [6, 11]: 0.125 mg/kg |
| CC(C)(C)OC(=O)c1ncn2c1C1CCCN1C(=O)c1c(Br)cccc1-2 (stereo not shown) [Ro16-6028, reference compound] | 0.48 | 40 | 37 | 76 | 64 |  |  |  | EC50 [2]: 3 nM; EC50 [3]: 5 nM; EC50 [4]: 5 nM; EC50 [5]: 3 nM; spontaneous locomotor activity, minimal efficacious dose [6, 11]: 0.06 mg/kg; Porsolt swim test, minimal efficacious dose [8]: 1 mg/kg |
| O=C(Nc1ccc(OCCO)cc1)c1c[nH]c2c1C(=O)CCC2 [compound 12] | 5.4 | 15 | 63 | 82 |  |  | -12 |  | cognitive model (step-down passive avoidance), minimal efficacious dose ([9]; IV): 0.06 mg/kg |
